In patent US10065990B2, “Cyclic peptide compound, and preparation method, pharmaceutical composition and use thereof” (HANGZHOU GUANYU BIO-MEDICAL CO., LTD, priority 2013, dated 2018):
Like-named read-outs stand apart in the source and are kept apart here.

Experiments:
HDAC1 = HDAC1 (Homo sapiens, UniProt Q13547); assay: HDAC biochemical activity measurement (fluorescent substrate deacetylation);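 further: fluorogenic acetyl-lysine substrate (20 µM) deacetylated by HDAC1, then developer releases fluorophore read at 360 nm excitation and 460 nm emission, inhibitor incubated 30 min at 37 °C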
Chain of HDAC1 (Q13547 whole entry, species assumed): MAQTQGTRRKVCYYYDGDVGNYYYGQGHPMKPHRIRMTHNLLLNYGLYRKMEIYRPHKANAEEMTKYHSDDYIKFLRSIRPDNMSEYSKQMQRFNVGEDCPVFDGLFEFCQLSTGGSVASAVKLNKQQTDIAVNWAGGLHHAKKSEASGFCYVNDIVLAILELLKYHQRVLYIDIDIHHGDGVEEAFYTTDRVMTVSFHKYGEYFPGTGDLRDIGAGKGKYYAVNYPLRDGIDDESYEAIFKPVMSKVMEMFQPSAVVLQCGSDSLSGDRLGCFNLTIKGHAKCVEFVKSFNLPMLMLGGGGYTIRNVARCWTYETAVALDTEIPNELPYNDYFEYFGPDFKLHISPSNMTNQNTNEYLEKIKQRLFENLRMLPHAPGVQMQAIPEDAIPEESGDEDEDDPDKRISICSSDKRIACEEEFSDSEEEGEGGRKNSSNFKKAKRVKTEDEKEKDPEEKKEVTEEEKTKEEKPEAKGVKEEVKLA

HDAC2 = HDAC2 (Homo sapiens, UniProt Q92769); assay: as above; conditions: 37° C. 30 minutes;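 further: HDAC2 enzyme with an acetyl-lysine fluorescent substrate, then developer added, fluorescence read at excitation 360 nm and emission 460 nm, inhibition measured across several compound concentrations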
Chain of HDAC2 (Q92769 whole entry, species assumed): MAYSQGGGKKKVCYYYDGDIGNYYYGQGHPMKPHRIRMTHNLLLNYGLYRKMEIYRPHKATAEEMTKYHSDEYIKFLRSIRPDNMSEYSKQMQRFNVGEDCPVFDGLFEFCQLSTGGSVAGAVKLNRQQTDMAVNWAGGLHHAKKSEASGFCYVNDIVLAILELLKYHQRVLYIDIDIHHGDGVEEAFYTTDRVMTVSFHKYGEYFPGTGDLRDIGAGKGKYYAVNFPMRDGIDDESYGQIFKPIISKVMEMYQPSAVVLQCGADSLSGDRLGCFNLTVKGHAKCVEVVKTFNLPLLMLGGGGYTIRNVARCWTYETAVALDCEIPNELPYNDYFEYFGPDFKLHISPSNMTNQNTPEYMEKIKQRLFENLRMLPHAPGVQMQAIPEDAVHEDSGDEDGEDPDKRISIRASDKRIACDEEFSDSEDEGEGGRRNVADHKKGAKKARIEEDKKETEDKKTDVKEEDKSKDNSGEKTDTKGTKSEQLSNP

[1] = system: A549 (human lung cancer cells); assay: MTT cancer cell growth inhibition; assay type: cell-based; conditions: Homo sapiens, A549, 72 h, MTT, 72 hours incubation; read-out: GI50 A54
In short: (§1)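 72 h exposure, final drug 10^−5–10^−10 M, triplicate wells; 1500 cells/well plated the day before; medium DMEM or 1640 + 10% FBS; 37° C./5% CO2. MTT (5 mg/ml stock) 4 h, DMSO solubilisation, A570 → % viability → GI50.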

[2] = system: BGC-823 (human gastric cancer cells); assay: MTT cancer cell growth inhibition; assay type: cell-based; conditions: Homo sapiens, BGC-823, 72 h, MTT
In short: as §1

[3] = system: Bel-7402 (human hepatoma cells); assay: MTT cancer cell growth inhibition; assay type: cell-based; conditions: Homo sapiens, Bel-7402, 72 h, MTT, 72 hours incubation, Bel-7402 cells; read-out: GI50 Bel-7402
In short: as §1

[4] = system: DU145 (human prostate cancer cells); assay: MTT cancer cell growth inhibition; assay type: cell-based; conditions: Homo sapiens, DU-145, 72 h, MTT
In short: as §1

[5] = system: H1975 (non-small cell lung adenocarcinoma); assay: MTT cancer cell growth inhibition; assay type: cell-based; conditions: Homo sapiens, NCI-H1975, 72 h, MTT, 72 hours incubation, H1975 cells; read-out: GI50 H1975
In short: as §1

[6] = system: HCC827 (human non-small cell lung cancer cells); assay: MTT cancer cell growth inhibition; assay type: cell-based; conditions: Homo sapiens, HCC827, 72 h, MTT, 72 hours incubation, HCC827 cells; read-out: GI50 HCC827
In short: as §1

[7] = system: HT1080 (human fibrosarcoma cells); assay: MTT cancer cell growth inhibition; assay type: cell-based; conditions: Homo sapiens, HT-1080, 72 h, MTT, 72 hours incubation; read-out: GI50 HT1
In short: as §1

[8] = system: Hela (human cervical cancer cells); assay: MTT cancer cell growth inhibition; assay type: cell-based; conditions: Homo sapiens, HeLa, 72 h, MTT
In short: as §1

[9] = system: Huh-7 (human hepatoma cells); assay: MTT cancer cell growth inhibition; assay type: cell-based; conditions: Homo sapiens, Huh-7, 72 h, MTT, 72 hours incubation, Huh-7 cells; read-out: GI50 Huh-7
In short: as §1

[10] = system: K562 (human leukemia cells); assay: MTT cancer cell growth inhibition; assay type: cell-based; conditions: Homo sapiens, K562, 72 h, MTT, 72 hours incubation, K562 cells; read-out: GI50 K562
In short: as §1

[11] = system: KBM-5 (human chronic myelogenous leukemia); assay: MTT cancer cell growth inhibition; assay type: cell-based; conditions: Homo sapiens, KBM5, 72 h, MTT, 72 hours incubation, KBM-5 cells; read-out: GI50 KBM-5
In short: as §1

[12] = system: KBM5-T315I (human chronic myelogenous leukemia); assay: MTT cancer cell growth inhibition; assay type: cell-based; conditions: Homo sapiens, 72 h, MTT, 72 hours incubation, KBM5-T315I cells; read-out: GI50 KBM5-T315I
In short: as §1

[13] = system: MCF-7 (human breast cancer cells); assay: MTT cancer cell growth inhibition; assay type: cell-based; conditions: Homo sapiens, MCF7, 72 h
In short: as §1

[14] = system: MDA-MB-231 (breast cancer cells); assay: MTT cancer cell growth inhibition; assay type: cell-based; conditions: Homo sapiens, MDA-MB-231, 72 h, read-out: GI50 MDA-MB-231, MTT, 72 hours incubation, MDA-MB-231 cells
In short: as §1

[15] = system: MOLT-4 (human acute lymphoblastic leukemia cells); assay: MTT cancer cell growth inhibition; assay type: cell-based; conditions: Homo sapiens, MOLT-4, 72 h, MTT, 72 hours incubation; read-out: GI50 Mol
In short: as §1

[16] = system: N-87 (human gastric cancer cells); assay: MTT cancer cell growth inhibition; assay type: cell-based; conditions: Homo sapiens, 72 h, MTT, 72 hours incubation, N-87 cells; read-out: GI50 N-87
In short: as §1

[17] = system: PANC-1 (Pac-1, human pancreatic cancer cells); assay: MTT cancer cell growth inhibition; assay type: cell-based; conditions: MTT
In short: as §1

[18] = system: SGC-7901 (human gastric cancer cells); assay: MTT cancer cell growth inhibition; assay type: cell-based; conditions: Homo sapiens, SGC-7901, 72 h, MTT, 72 hours incubation, SGC-7901 cells; read-out: GI50 SGC-7901
In short: as §1

[19] = system: lncap (prostate cancer cells); assay: MTT cancer cell growth inhibition; assay type: cell-based; conditions: Homo sapiens, LNCaP, 72 h, MTT
In short: as §1

HDAC3 = HDAC3 (Homo sapiens, UniProt O15379); assay: HDAC biochemical activity measurement (fluorescent substrate deacetylation);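 further: fluorogenic acetyl-lysine substrate (20 µM) deacetylated by HDAC3, then developer added for 15 min at room temperature, release of fluorophore read at excitation 360 nm, emission 460 nm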
Chain of HDAC3 (O15379 whole entry, species assumed): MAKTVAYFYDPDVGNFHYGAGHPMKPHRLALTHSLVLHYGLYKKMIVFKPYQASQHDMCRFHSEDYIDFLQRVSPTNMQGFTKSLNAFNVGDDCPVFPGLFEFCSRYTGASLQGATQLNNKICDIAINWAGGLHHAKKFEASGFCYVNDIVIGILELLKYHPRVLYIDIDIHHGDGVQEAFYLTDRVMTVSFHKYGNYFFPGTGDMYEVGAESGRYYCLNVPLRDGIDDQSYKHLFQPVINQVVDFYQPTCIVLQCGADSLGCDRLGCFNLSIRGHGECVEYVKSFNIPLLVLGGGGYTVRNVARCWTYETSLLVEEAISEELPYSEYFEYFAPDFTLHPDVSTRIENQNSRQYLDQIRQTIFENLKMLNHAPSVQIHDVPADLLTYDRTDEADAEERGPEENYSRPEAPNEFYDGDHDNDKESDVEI
Chain of HDAC3 (Q9Y618 395-489 partner limits assumed, species assumed): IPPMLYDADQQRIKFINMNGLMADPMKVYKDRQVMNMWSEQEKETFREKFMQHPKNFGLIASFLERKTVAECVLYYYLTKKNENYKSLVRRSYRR

[20] = system: U937 (human leukemia cells); assay: MTT cancer cell growth inhibition; assay type: cell-based; conditions: Homo sapiens, U-937, 72 h, MTT
In short: as §1

[21] = HDAC1, 37° C. 30 minutes, read-out: IC50 HDAC1
[22] = 72 hours incubation, read-out: GI50 BG
[23] = 72 hours incubation, read-out: GI50 Du1
[24] = 72 hours incubation, read-out: GI50 Hela
[25] = 72 hours incubation, read-out: GI50 MCF
[26] = Homo sapiens, PANC-1, 72 h, 72 hours incubation, read-out: GI50 PAN
[27] = 72 hours incubation, read-out: GI50 lnca

IC50 (HDAC1; [21]) [nM]	IC50 (HDAC2) [nM]	GI50 [1] [nM]	GI50 [2, 22] [nM]	GI50 [3] [nM]	GI50 [4, 23] [nM]	GI50 [5] [nM]	GI50 [6] [nM]	GI50 [7] [nM]	GI50 [8, 24] [nM]	GI50 [9] [nM]	GI50 [10] [nM]	GI50 [11] [nM]	GI50 [12] [nM]	GI50 [13, 25] [nM]	GI50 [14] [nM]	GI50 [15] [nM]	GI50 [16] [nM]	GI50 [17, 26] [nM]	GI50 [18] [nM]	SMILES	further results
74	83	100	220	95	20	37	31	40	500	51	37	68	35	50	86	490	35	220	18	C/C=C1\NC(=O)c2nccc(n2)CNC(=O)C[C@@H](/C=C/CCSC(C)=O)OC(=O)[C@H](C)NC1=O [Example 24]	GI50 [19, 27]: 30 nM; IC50 (HDAC3): 43 nM
73	34	30		35	50	73	45	80	40	65	43	33	23	50	56	80	23		35	C/C=C1\NC(=O)c2cccc(n2)CCNC(=O)C[C@@H](/C=C/CCS)OC(=O)[C@H](C(C)C)NC1=O [Compound 146]	GI50 ([20]; 72 hours incubation, read-out: GI50 U93): 30 nM; GI50 [19, 27]: 40 nM; IC50 (HDAC3): 28 nM
41	22	10	60	29		122	179	10	20	33	78	37	46	30	95		18	20	53	C/C=C1\NC(=O)c2cccc(n2)CNC(=O)C[C@@H](/C=C/CCSC(=O)CCCCCCC)OC(=O)[C@H](C(C)C)NC1=O [Compound 1]	IC50 (HDAC1; Table 2, read-out: IC50 HDAC1, a (compounds of the present invention)): < 50 nM; IC50 (HDAC1; Table 3, read-out: IC50 HDAC1, D (non-substituent)): 41 nM; GI50 ([2]; 72 hours, present invention, read-out: GI50 BGC823, a): 60 nM; GI50 ([4]; 72 hours, present invention, read-out: GI50 Du145, a): 4 nM; GI50 ([8]; 72 hours, present invention, read-out: GI50 Hela, a): 20 nM; GI50 ([13]; 72 hours, present invention, read-out: GI50 MCF7, a): 30 nM; GI50 ([17]; 72 hours, present invention, read-out: GI50 PANC-1, a): 320 nM; GI50 ([20]; 72 hours, present invention, read-out: GI50 U937, a): 5 nM; GI50 ([19]; 72 hours, present invention, read-out: GI50 lncap, a): 9 nM; IC50 (HDAC3; read-out: IC50 HDAC3, HDAC3, 37° C. 30 minutes): 35 nM
